{
  "source": "paper PMC11347632",
  "about": "(Scientific Reports, 2024)",
  "target": "RPA70 (replication protein A) (Homo sapiens, UniProt P27694)",
  "sequence (P15927 whole entry)": "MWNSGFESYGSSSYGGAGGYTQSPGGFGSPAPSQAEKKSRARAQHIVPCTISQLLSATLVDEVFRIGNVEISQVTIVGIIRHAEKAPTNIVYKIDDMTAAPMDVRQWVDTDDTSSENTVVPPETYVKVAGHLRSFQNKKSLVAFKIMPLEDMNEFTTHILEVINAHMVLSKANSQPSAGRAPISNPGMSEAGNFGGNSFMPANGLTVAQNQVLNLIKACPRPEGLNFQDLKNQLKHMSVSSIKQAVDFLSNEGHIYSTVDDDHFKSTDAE",
  "sequence (P35244 2-121, further chain)": "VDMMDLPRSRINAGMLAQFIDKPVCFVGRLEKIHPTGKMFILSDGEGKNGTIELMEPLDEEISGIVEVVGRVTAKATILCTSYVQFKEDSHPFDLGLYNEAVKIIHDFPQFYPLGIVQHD",
  "sequence (P27694 whole entry)": "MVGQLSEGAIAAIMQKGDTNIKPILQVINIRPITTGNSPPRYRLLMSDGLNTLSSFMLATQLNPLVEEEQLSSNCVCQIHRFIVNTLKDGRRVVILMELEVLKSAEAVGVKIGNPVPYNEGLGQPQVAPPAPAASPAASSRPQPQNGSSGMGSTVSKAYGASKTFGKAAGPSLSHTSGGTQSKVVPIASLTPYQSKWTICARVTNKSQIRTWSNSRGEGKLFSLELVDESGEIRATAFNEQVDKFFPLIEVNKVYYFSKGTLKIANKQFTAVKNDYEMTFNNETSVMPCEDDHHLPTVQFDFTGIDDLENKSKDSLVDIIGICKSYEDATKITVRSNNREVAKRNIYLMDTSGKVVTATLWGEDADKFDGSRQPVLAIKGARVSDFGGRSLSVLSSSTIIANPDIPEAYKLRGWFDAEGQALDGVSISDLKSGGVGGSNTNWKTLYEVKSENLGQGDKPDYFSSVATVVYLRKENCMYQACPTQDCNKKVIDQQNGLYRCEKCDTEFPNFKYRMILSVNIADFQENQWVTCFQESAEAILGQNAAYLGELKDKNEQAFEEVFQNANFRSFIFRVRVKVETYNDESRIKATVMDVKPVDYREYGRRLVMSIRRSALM",
  "test": "reconstituted RPA-dependent ATR kinase assay with western blot",
  "assay_type": "biochemical",
  "data": [
    {"smiles": "O=C1C=Cc2ccccc2/C1=C/Nc1ccccc1O", "note": "[HAMNO, (1Z)-1-[(2-hydroxyanilino)methylidene]naphthalen-2-one]", "values": [
      {"measurement": "reconstituted RPA-dependent ATR kinase assay with western blot", "result": "we titrated increasing amounts of HAMNO and PAME into the fully activated ATR reaction"}
    ]}
  ]
}
